Source: US20240238268A1, “TREATMENTS AND METHODS FOR TREATING ALZHEIMER'S DISEASE” (Board of Supervisors of Louisiana State University and …, priority 2021, published 2024)

How the values were obtained:
Type in all cases: in vivo, mouse
[1] = system: NOTCH1; test: NOTCH1 protein level in brain, capillary-based immunoassay; conditions: aged C57 female mice; 10 mg/kg, IP, 7 days
Procedure: NOTCH1 protein level in cortex, FIG. 13A, and hippocampus, FIG. 13B, was decreased in aged 3xTg-AD female mice v. male counterparts. Treatment with specific PRMT4 specific inhibitor (TP-064, 30 mg/kg, 7 days, IP) or AAV knockdown of PRMT4 enhanced NOTCH1 protein level in cortex, […], and hippocampus, […], in aged 3xTg-AD female mice. Relative NOTCH1 protein (˜110 kDa) level was measured by capillary-based immunoassay and normalized to total protein. * p<0.05 v. control male mice evaluated by unpaired t-test in FIGS. 13A and 13B. * p<0.05 compared to C57, #p<0.05 compared to 3xTg-AD+TP-064, $p<0.05 compared to 3xTg-AD+AAV, evaluated by one-way ANOVA with Tukey's post-hoc analyses in FIGS. 13C and 13D.
(§1) FIGS. 16A-16G show NOTCH1 inhibition (via crenigacestat) decreased ZO-1 and occluding and AAV knockdown of PRMT4 enhanced ZO-1 and occludin. […] C57 female mice. FIGS. 16B and 16C show crenigacestat (10 mg/kg, IP, 7 days) reduced NOTCH1 (110 kDa) protein level in the cortex and hippocampus of aged C57 female mice. AAV knockdown of PRMT4 increased NOTCH1 protein level. FIGS. 16D-16G show ZO-1 (220 kDa), and occludin (60 kDa) tight junctional proteins were decreased in the cortex and hippocampus in presence of NOTCH1 inhibitor in C57. PRMT4-AAV increased the expression of ZO-1 and occludin in aged 3xTg-AD female mice. Protein level was measured by capillary-based immunoassay and normalized to total protein. * p<0.05 compared to C57, #p<0.05 compared to 3xTg-AD, $p<0.05 compared to 3xTg-AD+AAV as evaluated by one-way ANOVA with Tukey's post-hoc analyses.
Capillary-phoresis immunoassay via ProteinSimple®: Quantification of all protein targets was achieved using Simple Western analysis in a Jess™ apparatus per the manufacturer's protocol (ProteinSimple, Bio-techne, Minneapolis, MN). […] Following homogenization and centrifugation (10,000×g, 5 min, 4° C.), protein concentration was determined in tissue protein supernatant samples using DC Protein Assay (Cat. No. 5000112, Bio-Rad Laboratories, Hercules, California) according to manufacturer instructions. […] Antibody diluent (ProteinSimple, Bio-techne, Minneapolis, MN) was used for all antibody dilutions as follows: PRMT4 (1:50, RRID: AB_2068436), PRMT6 (1:100, Cell Signaling Technology cat. 14641), eNOS (1:200, RRID: AB_10850618), nNOS (1:100, RRID: AB_2152488), iNOS (1:100, RRID: AB_10000625), DDAH2 (1:50, RRID: AB_2640442) Antibodies were detected using HRP-conjugated secondary anti-rabbit, and -mouse. Relative protein levels were calculated by measuring the area under the peak of a chemiluminescent chromatogram and normalized to total capillary chemiluminescence for a given sample. […]

[2] = system: ZO-1; test: ZO-1 tight junction protein level in brain, capillary-based immunoassay; conditions: C57 mice; 10 mg/kg, IP, 7 days
Procedure: as §1
(§2) Capillary-phoresis immunoassay via ProteinSimple®: Quantification of all protein targets was achieved using Simple Western analysis in a Jess™ apparatus per the manufacturer's protocol (ProteinSimple, Bio-techne, Minneapolis, MN). […] Following homogenization and centrifugation (10,000×g, 5 min, 4° C.), protein concentration was determined in tissue protein supernatant samples using DC Protein Assay (Cat. No. 5000112, Bio-Rad Laboratories, Hercules, California) according to manufacturer instructions. […]

[3] = system: occludin; test: Occludin tight junction protein level in brain, capillary-based immunoassay; conditions: C57 mice; 10 mg/kg, IP, 7 days
Procedure: as §1, §2

[4] = system: C57 mice; test: Neurovascular coupling: microvessel diameter, two-photon laser scanning microscopy, C57 mice; conditions: 10 mg/kg, 7 days, IP

C[C@H](NC(=O)CCC(F)(F)F)C(=O)N[C@@H]1C(=O)N(CCO)c2ncccc2-c2ccccc21 [Crenigacestat]
NOTCH1 protein level in cortex [1]: reduced | NOTCH1 protein level in hippocampus [1]: reduced | ZO-1 protein level in cortex [2]: decreased | ZO-1 protein level in hippocampus [2]: decreased | occludin protein level in cortex [3]: decreased | occludin protein level in hippocampus [3]: decreased | microvessel diameter [4]: decrease
